Reference: ChEMBL document CHEMBL5442219

Experiments:
Details in all cases: Compound concentration 10 µM
[1] = biological target: Sodium-dependent dopamine transporter (Homo sapiens) (UniProt Q01959)
Description: PDSP Primary Binding target: SLC6A3 - Compounds are tested at 10 uM concentration, plate are incubated at room temperature in the dark for 90 minutes. Reaction are stopped by vacuum filtration onto 0.3% polyethyleneimine soaked filter mats using Filtermate harvester. Scintilation cocktail is then melted onto microwave-dried filters on a hot plate and the radio activity is counted in Microbia counter.

[2] = biological target: T1, Alpha-1B adrenergic receptor (Homo sapiens) (UniProt P35368)
T1 sequence (whole entry): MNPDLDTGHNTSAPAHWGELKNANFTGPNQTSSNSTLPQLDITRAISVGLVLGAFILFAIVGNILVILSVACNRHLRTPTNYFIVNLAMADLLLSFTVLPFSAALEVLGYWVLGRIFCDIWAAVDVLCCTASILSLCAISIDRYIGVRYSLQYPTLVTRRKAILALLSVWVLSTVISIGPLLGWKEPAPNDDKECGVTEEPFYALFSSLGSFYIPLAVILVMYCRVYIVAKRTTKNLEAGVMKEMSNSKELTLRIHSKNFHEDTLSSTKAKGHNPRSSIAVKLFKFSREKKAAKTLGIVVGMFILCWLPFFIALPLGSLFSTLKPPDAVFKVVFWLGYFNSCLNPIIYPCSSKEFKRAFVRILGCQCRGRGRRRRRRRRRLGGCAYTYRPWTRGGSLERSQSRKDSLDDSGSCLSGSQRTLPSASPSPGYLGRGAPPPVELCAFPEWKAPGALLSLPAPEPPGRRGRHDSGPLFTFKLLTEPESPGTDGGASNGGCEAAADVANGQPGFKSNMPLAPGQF
Description: PDSP Primary Binding target: ADRA1B - Compounds are tested at 10 uM concentration, plate are incubated at room temperature in the dark for 90 minutes. Reaction are stopped by vacuum filtration onto 0.3% polyethyleneimine soaked filter mats using Filtermate harvester. Scintilation cocktail is then melted onto microwave-dried filters on a hot plate and the radio activity is counted in Microbia counter.

[3] = biological target: 5-hydroxytryptamine receptor 5A (Homo sapiens) (UniProt P47898)
Chain of 5-hydroxytryptamine receptor 5A (Homo sapiens) (P47898 whole entry): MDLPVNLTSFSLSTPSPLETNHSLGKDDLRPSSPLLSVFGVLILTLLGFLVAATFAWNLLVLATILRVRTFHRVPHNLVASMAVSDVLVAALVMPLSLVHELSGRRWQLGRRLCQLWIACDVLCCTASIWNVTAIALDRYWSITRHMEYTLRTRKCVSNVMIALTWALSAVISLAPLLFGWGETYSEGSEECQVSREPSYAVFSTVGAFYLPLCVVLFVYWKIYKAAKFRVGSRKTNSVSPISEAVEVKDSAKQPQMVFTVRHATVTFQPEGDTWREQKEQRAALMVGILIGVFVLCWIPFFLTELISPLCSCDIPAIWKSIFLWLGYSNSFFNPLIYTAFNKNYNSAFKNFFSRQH
Description: PDSP Primary Binding target: HTR5A - Compounds are tested at 10 uM concentration, plate are incubated at room temperature in the dark for 90 minutes. Reaction are stopped by vacuum filtration onto 0.3% polyethyleneimine soaked filter mats using Filtermate harvester. Scintilation cocktail is then melted onto microwave-dried filters on a hot plate and the radio activity is counted in Microbia counter.

[4] = biological target: 5-hydroxytryptamine receptor 1E (Homo sapiens) (UniProt P28566)
Chain of 5-hydroxytryptamine receptor 1E (Homo sapiens) (P28566 whole entry): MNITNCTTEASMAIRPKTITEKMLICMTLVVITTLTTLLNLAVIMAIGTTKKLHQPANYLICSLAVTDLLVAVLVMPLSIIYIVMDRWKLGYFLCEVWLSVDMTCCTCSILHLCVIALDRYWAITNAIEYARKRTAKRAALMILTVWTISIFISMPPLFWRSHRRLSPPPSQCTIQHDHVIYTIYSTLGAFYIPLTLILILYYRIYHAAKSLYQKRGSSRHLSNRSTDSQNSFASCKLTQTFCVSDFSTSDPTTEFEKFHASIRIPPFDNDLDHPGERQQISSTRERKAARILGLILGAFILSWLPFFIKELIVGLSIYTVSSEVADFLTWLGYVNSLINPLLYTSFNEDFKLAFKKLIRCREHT
Description: PDSP Primary Binding target: HTR1E - Compounds are tested at 10 uM concentration, plate are incubated at room temperature in the dark for 90 minutes. Reaction are stopped by vacuum filtration onto 0.3% polyethyleneimine soaked filter mats using Filtermate harvester. Scintilation cocktail is then melted onto microwave-dried filters on a hot plate and the radio activity is counted in Microbia counter.

[5] = biological target: T2, 5-hydroxytryptamine receptor 3A (Homo sapiens) (UniProt P46098)
T2 sequence (whole entry): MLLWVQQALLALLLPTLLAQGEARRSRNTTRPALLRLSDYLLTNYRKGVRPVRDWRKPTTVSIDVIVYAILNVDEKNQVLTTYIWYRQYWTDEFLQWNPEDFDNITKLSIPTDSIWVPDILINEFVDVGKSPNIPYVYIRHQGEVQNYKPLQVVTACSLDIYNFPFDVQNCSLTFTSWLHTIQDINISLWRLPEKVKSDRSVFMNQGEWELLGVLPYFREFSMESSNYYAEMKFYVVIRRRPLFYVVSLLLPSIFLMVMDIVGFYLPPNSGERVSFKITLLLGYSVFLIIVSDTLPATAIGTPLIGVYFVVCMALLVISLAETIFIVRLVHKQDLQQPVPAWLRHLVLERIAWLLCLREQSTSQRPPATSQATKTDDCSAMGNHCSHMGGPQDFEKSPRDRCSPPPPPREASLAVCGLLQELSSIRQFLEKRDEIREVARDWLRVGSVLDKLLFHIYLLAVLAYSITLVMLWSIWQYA
Description: PDSP Primary Binding target: HTR3A - Compounds are tested at 10 uM concentration, plate are incubated at room temperature in the dark for 90 minutes. Reaction are stopped by vacuum filtration onto 0.3% polyethyleneimine soaked filter mats using Filtermate harvester. Scintilation cocktail is then melted onto microwave-dried filters on a hot plate and the radio activity is counted in Microbia counter.

[6] = biological target: D(1A) dopamine receptor (Homo sapiens) (UniProt P21728)
Chain of D(1A) dopamine receptor (Homo sapiens) (P21728 whole entry): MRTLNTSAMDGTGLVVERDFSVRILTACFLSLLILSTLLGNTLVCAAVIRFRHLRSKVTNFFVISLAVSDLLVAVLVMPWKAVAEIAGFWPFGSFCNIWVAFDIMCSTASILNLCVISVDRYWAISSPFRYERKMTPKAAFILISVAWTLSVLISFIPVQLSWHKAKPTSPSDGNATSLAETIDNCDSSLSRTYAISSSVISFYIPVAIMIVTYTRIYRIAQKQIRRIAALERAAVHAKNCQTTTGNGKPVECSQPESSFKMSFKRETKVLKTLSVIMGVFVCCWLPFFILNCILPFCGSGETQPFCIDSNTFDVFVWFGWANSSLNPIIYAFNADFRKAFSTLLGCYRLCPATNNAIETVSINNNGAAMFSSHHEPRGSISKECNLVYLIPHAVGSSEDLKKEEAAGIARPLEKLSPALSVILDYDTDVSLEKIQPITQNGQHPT
Description: PDSP Primary Binding target: DRD1 - Compounds are tested at 10 uM concentration, plate are incubated at room temperature in the dark for 90 minutes. Reaction are stopped by vacuum filtration onto 0.3% polyethyleneimine soaked filter mats using Filtermate harvester. Scintilation cocktail is then melted onto microwave-dried filters on a hot plate and the radio activity is counted in Microbia counter.

[7] = biological target: T3, Alpha-2A adrenergic receptor (Homo sapiens) (UniProt P08913)
T3 sequence (whole entry): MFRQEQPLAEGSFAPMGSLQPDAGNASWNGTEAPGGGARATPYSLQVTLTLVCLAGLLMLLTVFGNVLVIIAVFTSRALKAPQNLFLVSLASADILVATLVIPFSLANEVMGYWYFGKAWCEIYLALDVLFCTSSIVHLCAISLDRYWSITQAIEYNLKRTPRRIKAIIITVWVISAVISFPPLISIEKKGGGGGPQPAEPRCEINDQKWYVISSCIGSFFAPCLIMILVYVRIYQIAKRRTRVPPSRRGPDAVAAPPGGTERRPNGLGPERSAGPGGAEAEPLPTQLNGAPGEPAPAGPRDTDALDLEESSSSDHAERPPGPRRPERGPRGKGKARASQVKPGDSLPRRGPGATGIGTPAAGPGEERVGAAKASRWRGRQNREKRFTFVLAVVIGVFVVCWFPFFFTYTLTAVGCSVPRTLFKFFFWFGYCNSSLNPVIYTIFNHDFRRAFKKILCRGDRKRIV
Description: PDSP Primary Binding target: ADRA2A - Compounds are tested at 10 uM concentration, plate are incubated at room temperature in the dark for 90 minutes. Reaction are stopped by vacuum filtration onto 0.3% polyethyleneimine soaked filter mats using Filtermate harvester. Scintilation cocktail is then melted onto microwave-dried filters on a hot plate and the radio activity is counted in Microbia counter.

[8] = biological target: D(2) dopamine receptor (Homo sapiens) (UniProt P14416)
Chain of D(2) dopamine receptor (Homo sapiens) (P14416 whole entry): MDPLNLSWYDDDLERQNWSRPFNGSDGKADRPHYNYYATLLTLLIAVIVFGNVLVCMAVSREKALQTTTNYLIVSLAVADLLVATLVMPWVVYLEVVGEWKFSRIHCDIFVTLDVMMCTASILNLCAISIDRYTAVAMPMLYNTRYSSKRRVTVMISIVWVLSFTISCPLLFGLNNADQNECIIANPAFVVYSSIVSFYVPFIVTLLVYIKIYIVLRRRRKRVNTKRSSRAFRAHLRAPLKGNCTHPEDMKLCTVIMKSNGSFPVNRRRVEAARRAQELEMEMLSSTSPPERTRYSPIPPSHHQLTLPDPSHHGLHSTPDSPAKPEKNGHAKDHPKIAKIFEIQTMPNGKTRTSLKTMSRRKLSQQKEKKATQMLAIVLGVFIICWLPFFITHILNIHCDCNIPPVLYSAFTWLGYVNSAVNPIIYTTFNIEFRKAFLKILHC
Description: PDSP Primary Binding target: DRD2 - Compounds are tested at 10 uM concentration, plate are incubated at room temperature in the dark for 90 minutes. Reaction are stopped by vacuum filtration onto 0.3% polyethyleneimine soaked filter mats using Filtermate harvester. Scintilation cocktail is then melted onto microwave-dried filters on a hot plate and the radio activity is counted in Microbia counter.

[9] = biological target: Sodium-dependent serotonin transporter (Homo sapiens) (UniProt P31645)
Chain of Sodium-dependent serotonin transporter (Homo sapiens) (P31645 whole entry, looked up): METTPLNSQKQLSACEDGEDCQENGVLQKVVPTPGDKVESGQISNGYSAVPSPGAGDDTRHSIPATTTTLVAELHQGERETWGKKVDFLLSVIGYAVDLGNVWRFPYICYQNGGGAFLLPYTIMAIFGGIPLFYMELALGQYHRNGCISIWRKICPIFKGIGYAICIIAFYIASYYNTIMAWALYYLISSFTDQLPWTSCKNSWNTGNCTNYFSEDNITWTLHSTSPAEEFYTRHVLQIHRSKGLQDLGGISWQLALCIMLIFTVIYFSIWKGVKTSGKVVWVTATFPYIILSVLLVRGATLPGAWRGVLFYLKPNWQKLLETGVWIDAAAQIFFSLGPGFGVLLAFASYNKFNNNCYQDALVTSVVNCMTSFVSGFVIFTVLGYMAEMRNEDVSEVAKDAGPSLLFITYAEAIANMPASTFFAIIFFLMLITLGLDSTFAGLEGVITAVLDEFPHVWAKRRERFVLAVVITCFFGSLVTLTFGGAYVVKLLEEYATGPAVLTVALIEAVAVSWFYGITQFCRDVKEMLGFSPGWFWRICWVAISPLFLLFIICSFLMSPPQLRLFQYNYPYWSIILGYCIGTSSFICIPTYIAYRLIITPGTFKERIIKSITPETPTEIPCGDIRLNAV
Description: PDSP Primary Binding target: SLC6A4 - Compounds are tested at 10 uM concentration, plate are incubated at room temperature in the dark for 90 minutes. Reaction are stopped by vacuum filtration onto 0.3% polyethyleneimine soaked filter mats using Filtermate harvester. Scintilation cocktail is then melted onto microwave-dried filters on a hot plate and the radio activity is counted in Microbia counter.

[10] = biological target: Histamine H1 receptor (Homo sapiens) (UniProt P35367)
Chain of Histamine H1 receptor (Homo sapiens) (P35367 whole entry): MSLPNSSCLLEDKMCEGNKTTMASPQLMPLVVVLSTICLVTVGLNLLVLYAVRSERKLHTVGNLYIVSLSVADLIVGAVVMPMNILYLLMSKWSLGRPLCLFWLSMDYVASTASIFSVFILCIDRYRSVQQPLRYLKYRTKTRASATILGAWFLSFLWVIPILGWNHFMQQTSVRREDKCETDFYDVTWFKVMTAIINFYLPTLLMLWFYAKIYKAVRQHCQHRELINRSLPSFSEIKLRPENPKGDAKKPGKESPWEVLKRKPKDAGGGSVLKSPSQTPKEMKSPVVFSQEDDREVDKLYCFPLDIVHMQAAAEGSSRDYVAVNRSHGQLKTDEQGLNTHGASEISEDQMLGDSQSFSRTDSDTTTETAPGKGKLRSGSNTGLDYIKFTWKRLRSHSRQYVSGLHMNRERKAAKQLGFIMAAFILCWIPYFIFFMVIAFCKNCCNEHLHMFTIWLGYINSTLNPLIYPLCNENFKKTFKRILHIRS
Description: PDSP Primary Binding target: HRH1 - Compounds are tested at 10 uM concentration, plate are incubated at room temperature in the dark for 90 minutes. Reaction are stopped by vacuum filtration onto 0.3% polyethyleneimine soaked filter mats using Filtermate harvester. Scintilation cocktail is then melted onto microwave-dried filters on a hot plate and the radio activity is counted in Microbia counter.

[11] = biological target: Translocator protein (Homo sapiens) (UniProt P30536)
Chain of Translocator protein (Homo sapiens) (P30536 whole entry): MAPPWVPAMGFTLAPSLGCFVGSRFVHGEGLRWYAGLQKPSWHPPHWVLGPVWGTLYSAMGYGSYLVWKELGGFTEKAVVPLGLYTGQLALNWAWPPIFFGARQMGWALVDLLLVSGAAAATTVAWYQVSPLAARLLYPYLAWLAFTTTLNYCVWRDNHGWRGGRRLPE
Description: PDSP Primary Binding target: TSPO - Compounds are tested at 10 uM concentration, plate are incubated at room temperature in the dark for 90 minutes. Reaction are stopped by vacuum filtration onto 0.3% polyethyleneimine soaked filter mats using Filtermate harvester. Scintilation cocktail is then melted onto microwave-dried filters on a hot plate and the radio activity is counted in Microbia counter.

[12] = biological target: T4, Muscarinic acetylcholine receptor M4 (Homo sapiens) (UniProt P08173)
T4 sequence (whole entry): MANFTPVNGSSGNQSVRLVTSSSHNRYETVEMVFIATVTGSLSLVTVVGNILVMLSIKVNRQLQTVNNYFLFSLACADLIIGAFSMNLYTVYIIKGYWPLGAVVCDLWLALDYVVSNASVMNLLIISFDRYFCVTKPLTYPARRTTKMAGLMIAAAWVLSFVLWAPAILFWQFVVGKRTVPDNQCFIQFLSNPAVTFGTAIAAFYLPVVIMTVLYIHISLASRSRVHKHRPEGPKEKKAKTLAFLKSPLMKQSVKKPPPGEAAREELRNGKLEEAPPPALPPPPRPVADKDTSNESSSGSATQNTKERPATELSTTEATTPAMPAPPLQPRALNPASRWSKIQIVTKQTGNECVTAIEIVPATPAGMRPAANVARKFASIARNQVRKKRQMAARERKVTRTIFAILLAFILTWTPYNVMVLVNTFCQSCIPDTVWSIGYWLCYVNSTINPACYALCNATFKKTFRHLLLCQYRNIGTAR
Description: PDSP Primary Binding target: CHRM4 - Compounds are tested at 10 uM concentration, plate are incubated at room temperature in the dark for 90 minutes. Reaction are stopped by vacuum filtration onto 0.3% polyethyleneimine soaked filter mats using Filtermate harvester. Scintilation cocktail is then melted onto microwave-dried filters on a hot plate and the radio activity is counted in Microbia counter.

[13] = biological target: Sodium-dependent noradrenaline transporter (Homo sapiens) (UniProt P23975)
Chain of Sodium-dependent noradrenaline transporter (Homo sapiens) (P23975 whole entry): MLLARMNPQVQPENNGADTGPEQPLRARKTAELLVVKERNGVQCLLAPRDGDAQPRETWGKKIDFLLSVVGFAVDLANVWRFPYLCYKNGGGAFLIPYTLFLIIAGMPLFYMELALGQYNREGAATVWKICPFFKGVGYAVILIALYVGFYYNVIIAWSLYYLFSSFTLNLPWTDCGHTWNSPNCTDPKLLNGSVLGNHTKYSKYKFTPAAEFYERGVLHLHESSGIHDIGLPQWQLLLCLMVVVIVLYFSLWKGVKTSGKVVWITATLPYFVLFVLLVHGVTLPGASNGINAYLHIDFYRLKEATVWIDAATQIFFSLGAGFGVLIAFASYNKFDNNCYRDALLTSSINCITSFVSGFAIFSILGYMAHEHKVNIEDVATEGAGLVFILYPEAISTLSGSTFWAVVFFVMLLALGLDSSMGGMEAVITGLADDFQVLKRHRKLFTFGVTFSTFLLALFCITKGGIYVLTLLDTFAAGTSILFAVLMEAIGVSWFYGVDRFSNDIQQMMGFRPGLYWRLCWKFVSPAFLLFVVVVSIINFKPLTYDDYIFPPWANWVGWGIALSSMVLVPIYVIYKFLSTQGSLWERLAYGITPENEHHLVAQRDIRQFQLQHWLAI
Description: PDSP Primary Binding target: SLC6A2 - Compounds are tested at 10 uM concentration, plate are incubated at room temperature in the dark for 90 minutes. Reaction are stopped by vacuum filtration onto 0.3% polyethyleneimine soaked filter mats using Filtermate harvester. Scintilation cocktail is then melted onto microwave-dried filters on a hot plate and the radio activity is counted in Microbia counter.

[14] = biological target: Sigma non-opioid intracellular receptor 1 (Homo sapiens) (UniProt Q99720)
Chain of Sigma non-opioid intracellular receptor 1 (Homo sapiens) (Q99720 whole entry): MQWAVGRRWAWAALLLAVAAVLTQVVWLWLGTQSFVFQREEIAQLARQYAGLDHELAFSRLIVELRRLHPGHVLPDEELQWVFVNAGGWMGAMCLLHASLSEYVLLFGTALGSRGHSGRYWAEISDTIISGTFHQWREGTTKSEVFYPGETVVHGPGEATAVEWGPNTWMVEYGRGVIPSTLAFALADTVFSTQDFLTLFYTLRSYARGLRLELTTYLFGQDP
Description: PDSP Primary Binding target: SIGMAR1 - Compounds are tested at 10 uM concentration, plate are incubated at room temperature in the dark for 90 minutes. Reaction are stopped by vacuum filtration onto 0.3% polyethyleneimine soaked filter mats using Filtermate harvester. Scintilation cocktail is then melted onto microwave-dried filters on a hot plate and the radio activity is counted in Microbia counter.

Chain of Sodium-dependent dopamine transporter (Homo sapiens) (Q01959 whole entry): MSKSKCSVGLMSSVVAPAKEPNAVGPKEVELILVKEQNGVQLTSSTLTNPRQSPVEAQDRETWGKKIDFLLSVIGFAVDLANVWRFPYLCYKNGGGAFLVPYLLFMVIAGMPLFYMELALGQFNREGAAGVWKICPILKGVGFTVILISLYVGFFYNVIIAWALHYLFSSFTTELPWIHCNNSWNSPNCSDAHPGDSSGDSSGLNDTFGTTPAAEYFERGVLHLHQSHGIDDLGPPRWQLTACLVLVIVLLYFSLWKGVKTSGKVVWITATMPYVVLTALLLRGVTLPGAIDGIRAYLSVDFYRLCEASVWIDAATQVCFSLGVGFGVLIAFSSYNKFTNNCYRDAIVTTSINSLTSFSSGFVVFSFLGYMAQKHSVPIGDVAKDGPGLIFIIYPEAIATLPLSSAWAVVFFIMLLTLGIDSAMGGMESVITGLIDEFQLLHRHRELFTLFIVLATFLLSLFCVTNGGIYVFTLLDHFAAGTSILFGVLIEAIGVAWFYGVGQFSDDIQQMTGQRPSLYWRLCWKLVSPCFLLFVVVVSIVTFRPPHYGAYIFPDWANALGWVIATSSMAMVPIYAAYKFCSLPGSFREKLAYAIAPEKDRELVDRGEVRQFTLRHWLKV

SMILES | inhibition [1] | inhibition [2] | inhibition [3] | inhibition [4] | inhibition [5] | inhibition [6] | inhibition [7] | inhibition [8] | inhibition [9] | inhibition [10] | inhibition [11] | inhibition [12] | inhibition [13] | inhibition [14]
CN1C(=O)[C@@H](NC(=O)c2cc3ccccc3[nH]2)N=C(c2ccccc2)c2ccccc21 | 42.1% | -6.37% | -2.34% | -6.92% | 2.09% | 7.2% | 11.2% | 4.63% | -8.05% | -6.55% | 59.1% | -8% | 28.5% | 
CN1CC(=O)N=C1NC(=O)Nc1cccc(Cl)c1 | 0.92% | -6.38% | 18.4% | 7.82% | -5.43% | 14.5% | 3.42% | -2.54% | -8.91% | -1.11% | -8.11% | -2.92% | 9.52% | 3.26%
CNC[C@H](O)c1cccc(O)c1 |  | 10.8% | 26.3% | 23.9% | 0.2% | 11.1% | 78.2% | -2.53% | 3.06% | -2.34% | 11.8% | 6.21% | 8.86% | 
OC1(c2ccc(Cl)cc2)CCN(Cc2c[nH]c3ccccc23)CC1 | 80% | 37.1% | 37.7% |  | -7.87% | 70.3% | 76.1% | 90.2% | 102% | 38.8% | -2.88% | -10% | 63.5% | 2.38%
COC(=O)C1=C(C)NC(C)=C(C(=O)OCCCN2CCC(c3ccccc3)(c3ccccc3)CC2)[C@H]1c1cccc([N+](=O)[O-])c1 | 89.7% | 98.6% | 68.7% | 40% | 43.2% | 80.7% | 90.1% | 79.2% | 85.7% | 98.8% | 79.8% | 24.8% | 86.5% | 53.5%
NC[C@@H]1O[C@H](C23CC4CC(CC(C4)C2)C3)Cc2c1ccc(O)c2O | 68.4% | 56.9% | 20.1% | 22.3% | 39.6% | 100% | 85.1% | 21.6% | 28.7% | 38.4% | -5.61% | 8.08% | 58.5% | 48.5%
